# Laboratory results taken from publication PMC4515785 (Journal of Medicinal Chemistry, 2015).
# Marks after values point to notes of the source that are not given here.
# Experiments:
# [1] = Human liver microsomes intrinsic clearance; type: in vitro ADME
# plasma protein binding = type: in vitro ADME
# [2] = male rat hepatocytes intrinsic clearance; type: in vitro ADME
# L. major promastigotes = assay: Leishmania major promastigote assay; type: cell-based; settings: for EC50: read-out: L. major EC50 Promast
# P. falciparum D6 = assay: Plasmodium falciparum SYBR Green fluorescence; type: cell-based; settings: D6, drug sensitive strain; for EC50: read-out: P. falciparum D6 EC50
# [3] = tested on: T. cruzi Tulahuen strain expressing β-galactosidase; assay: Trypanosoma cruzi intracellular amastigote assay in 3T3 cells; type: cell-based; settings: for EC50: read-out: T. cruzi EC50; for EC50 / T. cruzi EC50: intracellular amastigotes in 3T3 cells, 96 h
# HepG2 cells = assay: HepG2 toxicity assay; type: cell-based; settings: 48 h, MTT
# T. brucei = settings: read-out: T. brucei EC50; previously reported quinazoline analogs; cited from earlier work
compound,measurement,setting,value
Fc1cccc(COc2ccc(Nc3ncnc4ccc(-c5cccc(N6CCOCC6)c5)cc34)cc2Cl)c1 [compound 1],microsomal CLint,[1],63 µL/min/mg
same,plasma protein binding (% free),plasma protein binding,<1 % free
same,hepatocyte CLint,[2],44.5 µL/min/1e6 cells
"N-(3-Chloro-4-((3-fluorobenzyl)oxy)phenyl)-6-(4-((4-methylpiperazin-1-yl)sulfonyl)phenyl)thieno[3,2-d]pyrimidin-4-amine [compound 89]",EC50,L. major promastigotes,3.4 µM
same,EC50,P. falciparum D6,21 nM
same,EC50,[3],5.5 µM
same,HepG2 TC50,HepG2 cells,>15 µM
CN1CCCN(S(=O)(=O)c2ccc(-c3ccc4ncnc(Nc5ccc(OCc6cccc(F)c6)c(Cl)c5)c4c3)cc2)CC1 [compound 4],EC50,T. brucei,810 nM
"O=S(=O)(c1ccc(-c2ccc3nccc(Nc4ccc(OCc5ccccc5)c(Cl)c4)c3c2)cc1)N1CCOCC1 [compound 47, N-(4-(Benzyloxy)-3-chlorophenyl)-6-(4-(morpholinosulfonyl)phenyl)quinolin-4-amine]",microsomal CLint,[1],78.9 µL/min/mg
same,plasma protein binding (% free),plasma protein binding,<1 % free
"N-(3-Chloro-4-((3-fluorobenzyl)oxy)phenyl)-6-(4-((4-methyl-1,4-diazepan-1-yl)sulfonyl)phenyl)thieno[2,3-d]pyrimidin-4-amine [compound 92]",EC50,[3],15 µM
same,HepG2 TC50,HepG2 cells,>15 µM
"CN1CCCN(S(=O)(=O)c2ccc(-c3ccc4c(Nc5ccc(OCc6cccc(F)c6)c(Cl)c5)ccnc4c3)cc2)CC1 [compound 52, N-(3-Chloro-4-((3-fluorobenzyl)oxy)phenyl)-7-(4-((4-methyl-1,4-diazepan-1-yl)sulfonyl)phenyl)quinolin-4-amine]",T. cruzi EC50,[3],submicromolar potency
"N-(3-Chloro-4-((3-fluorobenzyl)oxy)phenyl)-6-(4-((4-methylpiperazin-1-yl)sulfonyl)phenyl)thieno[2,3-d]pyrimidin-4-amine [compound 90]",EC50,L. major promastigotes,> 15 µM
same,EC50,P. falciparum D6,43 nM
same,EC50,[3],48 µM
same,HepG2 TC50,HepG2 cells,>15 µM
"CN1CCCN(S(=O)(=O)c2ccc(-c3ccc4c(Nc5ccc(OCc6cccc(F)c6)c(Cl)c5)nncc4c3)cc2)CC1 [compound 76, N-(3-Chloro-4-((3-fluorobenzyl)oxy)phenyl)-6-(4-((4-methyl-1,4-diazepan-1-yl)sulfonyl)phenyl)phthalazin-1-amine]",P. falciparum D6 EC50,P. falciparum D6,equipotent to 5
"CN1CCCN(S(=O)(=O)c2ccc(-c3ccc4nccc(Nc5ccc(OCc6cccc(F)c6)c(Cl)c5)c4c3)cc2)CC1 [compound 51, N-(3-Chloro-4-((3-fluorobenzyl)oxy)phenyl)-6-(4-((4-methyl-1,4-diazepan-1-yl)sulfonyl)phenyl)quinolin-4-amine]",T. cruzi EC50,[3],submicromolar potency
"N-(3-Chloro-4-((3-fluorobenzyl)oxy)phenyl)-6-(3-morpholinophenyl)thieno[2,3-d]pyrimidin-4-amine [compound 86]",EC50,L. major promastigotes,> 15 µM
same,EC50,P. falciparum D6,520 nM
same,EC50,[3],2.2 µM
same,HepG2 TC50,HepG2 cells,>15 µM
"CN1CCCN(S(=O)(=O)c2ccc(-c3ccc4c(Nc5ccc(OCc6cccc(F)c6)c(Cl)c5)cnnc4c3)cc2)CC1 [compound 68, N-(3-Chloro-4-((3-fluorobenzyl)oxy)phenyl)-7-(4-((4-methyl-1,4-diazepan-1-yl)sulfonyl)phenyl)cinnolin-4-amine]",microsomal CLint,[1],99.3 µL/min/mg
same,plasma protein binding (% free),plasma protein binding,<1 % free
"O=S(=O)(c1ccc(-c2ccc3ccnc(Nc4ccc(OCc5ccccc5)c(Cl)c4)c3c2)cc1)N1CCOCC1 [compound 55, N-(4-(Benzyloxy)-3-chlorophenyl)-7-(4-(morpholinosulfonyl)phenyl)isoquinolin-1-amine]",L. major EC50 Promast,L. major promastigotes,complete loss in activity
"N-(4-(Benzyloxy)-3-chlorophenyl)-6-(4-(morpholinosulfonyl)phenyl)thieno[3,2-d]pyrimidin-4-amine [compound 87]",EC50,L. major promastigotes,> 3 µM
same,EC50,P. falciparum D6,620 nM
same,EC50,[3],> 50 µM
same,HepG2 TC50,HepG2 cells,>5 µM
"CN1CCN(S(=O)(=O)c2ccc(-c3ccc4c(Nc5ccc(OCc6cccc(F)c6)c(Cl)c5)ccnc4c3)cc2)CC1 [compound 50, N-(3-Chloro-4-((3-fluorobenzyl)oxy)phenyl)-7-(4-((4-methylpiperazin-1-yl)sulfonyl)phenyl)quinolin-4-amine]",microsomal CLint,[1],143 µL/min/mg
same,plasma protein binding (% free),plasma protein binding,<1 % free
same,T. cruzi EC50,[3],submicromolar potency
"CN1CCCN(S(=O)(=O)c2ccc(-c3ccc4ncc(C#N)c(Nc5ccc(OCc6cccc(F)c6)c(Cl)c5)c4c3)cc2)CC1 [compound 83, 4-((3-Chloro-4-((3-fluorobenzyl)oxy)phenyl)amino)-6-(4-((4-methyl-1,4-diazepan-1-yl)sulfonyl)phenyl)quinoline-3-carbonitrile]",microsomal CLint,[1],152 µL/min/mg
same,plasma protein binding (% free),plasma protein binding,<1 % free
same,fold increase in T. cruzi potency over matched des-fluoro analog,[3]; 83 vs 84,10 fold
same,fold improvement in T. cruzi potency over matched quinazoline analog 4,[3]; vs 4,5 fold
"N-(3-Chloro-4-((3-fluorobenzyl)oxy)phenyl)-6-(3-morpholinophenyl)thieno[3,2-d]pyrimidin-4-amine [compound 85]",EC50,L. major promastigotes,> 15 µM
same,EC50,P. falciparum D6,860 nM
same,EC50,[3],> 50 µM
same,HepG2 TC50,HepG2 cells,>15 µM
"N-(4-(Benzyloxy)-3-chlorophenyl)-6-(4-(morpholinosulfonyl)phenyl)thieno[2,3-d]pyrimidin-4-amine [compound 88]",EC50,L. major promastigotes,> 15 µM
same,EC50,P. falciparum D6,220 nM
same,EC50,[3],> 50 µM
same,HepG2 TC50,HepG2 cells,>15 µM
O=S(=O)(c1ccc(-c2ccc3ncnc(Nc4ccc(OCc5ccccc5)c(Cl)c4)c3c2)cc1)N1CCOCC1 [compound 3],T. cruzi % inh at 10 μM,[3]; 10 μM,(9.5)* %
CN1CCN(S(=O)(=O)c2ccc(-c3ccc4ncnc(Nc5ccc(OCc6cccc(F)c6)c(Cl)c5)c4c3)cc2)CC1 [compound 5],EC50,T. brucei,530 nM
"CN1CCN(S(=O)(=O)c2ccc(-c3ccc4nccc(Nc5ccc(OCc6cccc(F)c6)c(Cl)c5)c4c3)cc2)CC1 [compound 49, N-(3-Chloro-4-((3-fluorobenzyl)oxy)phenyl)-6-(4-((4-methylpiperazin-1-yl)sulfonyl)phenyl)quinolin-4-amine]",P. falciparum D6 EC50,P. falciparum D6,complete loss in activity
"CN1CCCN(S(=O)(=O)c2ccc(-c3ccc4ccnc(Nc5ccc(OCc6cccc(F)c6)c(Cl)c5)c4c3)cc2)CC1 [compound 59, N-(3-Chloro-4-((3-fluorobenzyl)oxy)phenyl)-7-(4-((4-methyl-1,4-diazepan-1-yl)sulfonyl)phenyl)isoquinolin-1-amine]",fold less potent against T. cruzi,[3]; compared with the quinazoline 4,10 fold
"N-(3-Chloro-4-((3-fluorobenzyl)oxy)phenyl)-6-(4-((4-methyl-1,4-diazepan-1-yl)sulfonyl)phenyl)thieno[3,2-d]pyrimidin-4-amine [compound 91]",EC50,[3],> 50 µM
same,HepG2 TC50,HepG2 cells,>15 µM
